In ChEMBL document CHEMBL3627641, “Identification of a new p53/MDM2 inhibitor motif inspired by studies of chlorofusin” (Bioorg Med Chem Lett, 2015):
pIC50: −log10 of the molar value.

Columns and labels:
SJSA-1 = assay: Cytotoxic activity against human SJSA1 cells; type: functional, cell-based; conditions: for pIC50: Homo sapiens, SJSA-1, read-out: IC50; for IC50: sjsa-1
A-375 = assay: Cytotoxic activity against human A375 cells; type: functional, cell-based; conditions: for IC50: a-375

SMILES | pIC50 (SJSA-1) | pIC50 (A-375; Homo sapiens, A-375, read-out: IC50) | IC50 (SJSA-1) | IC50 (A-375)
O=C(N[C@@H](CCCn1cc(-c2ccc(C(F)(F)F)cc2)nn1)C(=O)O)OCC1c2ccccc2-c2ccccc21 | 4.51 | 4.31 | – | –
COc1ccc(-c2cn(CCC[C@H](NC(=O)OCC3c4ccccc4-c4ccccc43)C(=O)O)nn2)cc1 | – | – | Not Active | Not Active
CC(C)(C)OC(=O)Nc1ccc(-c2cn(CCC[C@H](NC(=O)OCC3c4ccccc4-c4ccccc43)C(=O)O)nn2)cc1 | – | – | Not Active | Not Active
O=C(N[C@@H](CCCn1cc(-c2ccc(Br)cc2)nn1)C(=O)O)OCC1c2ccccc2-c2ccccc21 | – | – | Not Active | Not Active
O=C(N[C@@H](CCCn1cc(-c2ccc(Cl)cc2)nn1)C(=O)O)OCC1c2ccccc2-c2ccccc21 | – | – | Not Active | Not Active
O=C(N[C@@H](CCCn1cc(-c2ccc(I)cc2)nn1)C(=O)O)OCC1c2ccccc2-c2ccccc21 | – | – | Not Active | Not Active
Cc1ccc(-c2cn(CCC[C@H](NC(=O)OCC3c4ccccc4-c4ccccc43)C(=O)O)nn2)cc1 | 4.48 | – | – | Not Active
